According to patent publication US20250032658A1, “SYSTEMS AND METHODS FOR NEUTRALIZATION OF AIRBORNE ALLERGENS WITH ORGANIC ACIDS” (The Clorox Company, priority 2023, published 2025):
Where two headings read alike, the source gives them in different places.

Key:
[1] = room temperature and standard pressure; cited from earlier work
[2] = cited from earlier work
[3] = pKa / acid form of lactic acid; type: physicochemical; settings: at a pH of 2.2
Excerpt: In some example embodiments, the pH of the anti-allergen formulations can be kept low. A low pH can enhance the organic acid efficacy (e.g., lactic acid efficacy) in neutralization of airborne allergens. Typically, pH is kept a least 1 unit below pKa of the organic acid to ensure majority (at least 90%) of acid stays in the active (conjugate acid) form. […].

Row | lactic acid in the acidic form [3] | SMILES | Vapor Pressure [1] | Solubility in water ([2]; at ~20° C.) | Solubility in water [2]
1 |  | CC(=O)O [acetic acid] | 2080 Pa |  | 
2 |  | O=C(O)CCCCC(=O)O [adipic acid] | 9.70 Pa |  | 
3 |  | O=C(O)c1ccccc1 [benzoic acid] | 0.11 Pa |  | 
4 |  | CCCC(=O)O [butyric acid] | 100 Pa |  | 
5 |  | O=C(O)CC(O)(CC(=O)O)C(=O)O [citric acid] | 0.000002 Pa |  | 
6 |  | O=C(O)/C=C/C(=O)O [fumaric acid] |  | 0.7 g of compound in 100 g of water | 
7 |  | NCC(=O)O [glycine] | 0.000017 Pa |  | 
8 |  | O=C(O)CO [glycolic acid] | 0.41 Pa |  | 
9 |  | CCCCCCC(=O)O [heptanoic acid] | 1.35 Pa | 0.2 g of compound in 100 g of water | 
10 |  | CCCCCC(=O)O [hexanoic acid] | 5.80 Pa |  | 1.03 g of compound in 100 g of water
11 | at least 95% | CC(O)C(=O)O (stereo not drawn) [lactic acid] | 10.00 Pa |  | 
12 |  | CC(=O)CCC(=O)O [levulinic acid] | 0.374 Pa | 79.13 g of compound in 100 g of water | 
13 |  | O=C(O)/C=C\C(=O)O [maleic acid] |  | 47.88 g of compound in 100 g of water | 
14 |  | O=C(O)CC(O)C(=O)O (stereo not drawn) [malic acid] | 0.000004 Pa | 64.7 g of compound in 100 g of water | 
15 |  | O=C(O)CC(=O)O [malonic acid] | 0.00049 Pa |  | 
16 |  | CS(=O)(=O)O [methane sulfonic acid] | 0.048 Pa | 100 g of compound in 100 g of water | 
17 |  | CCCCCCCC(=O)O [octanoic acid] | 0.49 Pa |  | 
18 |  | CCC(=O)O [propionic acid] | 390 Pa |  | 
19 |  | CC(=O)C(=O)O [pyruvic acid] | 172 Pa | 100 g of compound in 100 g of water | 
20 |  | C/C=C/C=C/C(=O)O [sorbic acid] | 0.018 Pa | 0.156 g of compound in 100 g of water | 
21 |  | CCCCC(=O)O [valeric acid] | 100 Pa | 3.75 g of compound in 100 g of water | 
